Source: patent US12723063B2, “GIPR-agonist compounds” (Eli Lilly and Company, priority 2019, dated 2026)
*1 amine or outer side, *2 acyl side, *3 side chain or, on linkers, in order; H or OH if unused. Where a SMILES comes first, the peptide text is derived from it. Side-chain parts run from the residue outwards. [ ]: non-standard residue; d: D form. The star is where a group is joined. C20 diacid = O=C(O)CCCCCCCCCCCCCCCCCCC(=O)*; C18 diacid = O=C(O)CCCCCCCCCCCCCCCCC(=O)*; αMePhe(2-F) = C[C@](N)(Cc1ccccc1F)C(=O)O; γGlu = O=C(O)[C@H](CCC(=O)[*:2])N[*:1]; αMeL = CC(C)C[C@](C)(N)C(=O)O; AEEA = NCCOCCOCC(=O)O; Aib = CC(C)(N)C(=O)O

Key:
human GcgR = target: T1, human GcgR (Homo sapiens, UniProt P47871); test: [125I]-Glucagon binding, SPA with WGA beads, 0.1% bacitracin; settings: geometric mean, read-out: hGcgR Ki
T1 construct: expressed in transfected cells; crude membranes
T1 sequence (P47871 26-477): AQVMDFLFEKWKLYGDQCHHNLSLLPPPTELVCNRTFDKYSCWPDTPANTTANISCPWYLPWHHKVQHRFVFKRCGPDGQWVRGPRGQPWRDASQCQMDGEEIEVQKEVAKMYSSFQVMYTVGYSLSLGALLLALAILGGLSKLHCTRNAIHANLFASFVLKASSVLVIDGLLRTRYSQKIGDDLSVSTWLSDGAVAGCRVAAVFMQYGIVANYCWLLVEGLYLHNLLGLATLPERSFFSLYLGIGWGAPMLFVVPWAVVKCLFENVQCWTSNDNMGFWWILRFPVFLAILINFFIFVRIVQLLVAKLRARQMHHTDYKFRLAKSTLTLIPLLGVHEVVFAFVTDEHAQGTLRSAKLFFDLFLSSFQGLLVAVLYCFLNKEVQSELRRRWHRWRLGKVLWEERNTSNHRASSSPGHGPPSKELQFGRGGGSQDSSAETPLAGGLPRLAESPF
Summary of the method: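 SPA competition binding with WGA beads on crude membranes from HEK293 cells stably expressing hGcgR. Buffer: 25 mM HEPES pH 7.4, 2.5 mM CaCl2, 1 mM MgCl2, 0.1% bacitracin, 0.003% Tween-20; 10-point 3-fold dilutions, NSB with 1 μM Gcg.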

human GLP-1R = target: T2, human GLP-1R (Homo sapiens, UniProt P43220); test: [125I]-GLP-1 binding, SPA with WGA beads, 0.1% bacitracin; settings: geometric mean, read-out: hGLP1R Ki
T2 construct: expressed in transfected cells; crude membranes
T2 sequence (P43220 24-463): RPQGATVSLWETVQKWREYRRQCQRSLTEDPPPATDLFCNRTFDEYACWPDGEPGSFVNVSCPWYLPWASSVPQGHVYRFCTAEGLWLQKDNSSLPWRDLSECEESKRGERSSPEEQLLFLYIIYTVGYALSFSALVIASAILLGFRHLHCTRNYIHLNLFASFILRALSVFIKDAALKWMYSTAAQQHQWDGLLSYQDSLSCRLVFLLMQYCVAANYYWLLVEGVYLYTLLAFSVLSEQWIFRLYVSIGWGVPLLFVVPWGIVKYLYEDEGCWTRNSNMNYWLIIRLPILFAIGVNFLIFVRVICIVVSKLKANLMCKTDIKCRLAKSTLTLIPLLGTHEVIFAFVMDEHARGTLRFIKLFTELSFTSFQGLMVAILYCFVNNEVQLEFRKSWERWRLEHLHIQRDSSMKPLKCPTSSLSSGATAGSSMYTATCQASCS
Summary of the method: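 Binding buffer was 25 mM HEPES pH 7.4 with 2.5 mM CaCl2, 1 mM MgCl2, 0.1% (w/v) bacitracin, 0.003% Tween-20 and EDTA-free protease inhibitors. Four-parameter regression gave IC50, converted to Ki (geometric mean, SEM, n independent days).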

[1] = target: T3, human GLP-1 receptor (GLP-1R) (Homo sapiens, UniProt P43220); test: cAMP functional assay (HTRF) in HEK293 cells in presence of 0.1% casein; assay type: cell-based; settings: HEK293 cells expressing human GLP-1R, geometric mean, read-out: hGLP1R cAMP Rel EC50 nM (SEM, n)
T3 construct: expressed in transfected cells; host or cells: HEK293
T3 sequence (P43220 24-463): as above

Row | Structure (SMILES) | Ki (human GcgR) [µM] | Ki (human GLP-1R) [µM] | EC50 [1] [nM]
1 | CC[C@H](C)[C@H](NC(=O)[C@H](CO)NC(=O)[C@H](Cc1ccc(O)cc1)NC(=O)[C@H](CC(=O)O)NC(=O)[C@H](CO)NC(=O)[C@@H](NC(=O)[C@H](CC(C)C)NC(=O)[C@@H](NC(=O)CNC(=O)[C@H](CCC(=O)O)NC(=O)[C@@H](C)NC(=O)[C@@H](N)Cc1ccc(O)cc1)[C@@H](C)O)[C@@H](C)CC)C(=O)N[C@@H](CC(C)C)C(=O)N[C@@H](CC(C)C)C(=O)N[C@@H](CC(=O)O)C(=O)N[C@@H](CCCCN)C(=O)N[C@@H](CCCCNC(=O)COCCOCCNC(=O)COCCOCCNC(=O)CC[C@H](NC(=O)CCCCCCCCCCCCCCCCC(=O)O)C(=O)O)C(=O)N[C@@H](C)C(=O)N[C@@H](CCC(N)=O)C(=O)NC(C)(C)C(=O)N[C@@H](CC(=O)O)C(=O)N[C@@H](Cc1ccccc1)C(=O)N[C@H](C(=O)N[C@@H](CC(N)=O)C(=O)N[C@@H](Cc1c[nH]c2ccccc12)C(=O)N[C@@H](CC(C)C)C(=O)N[C@@H](CC(C)C)C(=O)N[C@@H](C)C(=O)N[C@@H](CCC(N)=O)C(=O)NCC(=O)N1CCC[C@H]1C(=O)N[C@@H](CO)C(=O)N[C@@H](CO)C(=O)NCC(=O)N[C@@H](C)C(=O)N1CCC[C@H]1C(=O)N1CCC[C@H]1C(=O)N1CCC[C@H]1C(=O)N[C@@H](CO)C(N)=O)C(C)C [Example 32] (H-Y[dA]EGTLISDYSILLDKK([AEEA-AEEA-γGlu-C18 diacid])AQ[Aib]DFVNWLLAQGPSSGAPPPS-NH2) | > 0.959 | 0.0852 | > 5000
2 | CC[C@H](C)[C@H](NC(=O)[C@H](CO)NC(=O)[C@H](Cc1ccc(O)cc1)NC(=O)[C@H](CC(=O)O)NC(=O)[C@H](CO)NC(=O)[C@@H](NC(=O)[C@](C)(Cc1ccccc1F)NC(=O)[C@@H](NC(=O)CNC(=O)[C@H](CCC(=O)O)NC(=O)[C@H](C)NC(=O)[C@@H](Cc1ccc(O)cc1)NC(C)=O)[C@@H](C)O)[C@@H](C)CC)C(=O)N[C@@H](C)C(=O)N[C@@H](CC(C)C)C(=O)N[C@@H](CC(=O)O)C(=O)N[C@@H](CCCCN)C(=O)N[C@@H](CCCCNC(=O)COCCOCCNC(=O)COCCOCCNC(=O)CC[C@H](NC(=O)CCCCCCCCCCCCCCCCCCC(=O)O)C(=O)O)C(=O)N[C@@H](Cc1c[nH]cn1)C(=O)N[C@@H](CCC(N)=O)C(=O)NC(C)(C)C(=O)N[C@@H](CCC(=O)O)C(=O)N[C@@H](Cc1ccccc1)C(=O)N[C@H](C(=O)N[C@@H](CC(N)=O)C(=O)N[C@@H](Cc1ccc(O)cc1)C(=O)N[C@@H](CC(C)C)C(=O)N[C@@H](CC(C)C)C(=O)N[C@@H](CCC(=O)O)C(=O)NCC(=O)NCC(=O)N1CCC[C@H]1C(=O)N[C@@H](CO)C(=O)N[C@@H](CO)C(=O)NCC(=O)N[C@@H](C)C(=O)N1CCC[C@H]1C(=O)N1CCC[C@H]1C(=O)N1CCC[C@H]1C(=O)N[C@@H](CO)C(N)=O)C(C)C [Example 33] (Ac-[dY]AEGT[αMePhe(2-F)]ISDYSIALDKK([AEEA-AEEA-γGlu-C20 diacid])HQ[Aib]EFVNYLLEGGPSSGAPPPS-NH2) | 0.0635 | 0.0312 | > 5000
3 | CC[C@H](C)[C@H](NC(=O)[C@H](CO)NC(=O)[C@H](Cc1ccc(O)cc1)NC(=O)[C@H](CC(=O)O)NC(=O)[C@H](CO)NC(=O)[C@@H](NC(=O)[C@](C)(Cc1ccccc1F)NC(=O)[C@@H](NC(=O)CNC(=O)[C@H](CCC(=O)O)NC(=O)C(C)(C)NC(=O)[C@@H](N)Cc1ccc(O)cc1)[C@@H](C)O)[C@@H](C)CC)C(=O)N[C@@H](C)C(=O)N[C@@H](CC(C)C)C(=O)N[C@@H](CC(=O)O)C(=O)N[C@@H](CCCCN)C(=O)N[C@@H](CCCCNC(=O)COCCOCCNC(=O)COCCOCCNC(=O)CC[C@H](NC(=O)CCCCCCCCCCCCCCCCCCC(=O)O)C(=O)O)C(=O)N[C@@H](Cc1c[nH]cn1)C(=O)N[C@@H](CCC(N)=O)C(=O)NC(C)(C)C(=O)N[C@@H](CCC(=O)O)C(=O)N[C@@H](Cc1ccccc1)C(=O)N[C@H](C(=O)N[C@@H](CC(N)=O)C(=O)N[C@@H](Cc1ccc(O)cc1)C(=O)N[C@@H](CC(C)C)C(=O)N[C@@H](CC(C)C)C(=O)N[C@@H](C)C(=O)N[C@H](C(=O)NCC(=O)N1CCC[C@H]1C(=O)N[C@@H](CO)C(=O)N[C@@H](CO)C(=O)NCC(=O)N[C@@H](C)C(=O)N1CCC[C@H]1C(=O)N1CCC[C@H]1C(=O)N1CCC[C@H]1C(=O)N[C@@H](CO)C(N)=O)[C@@H](C)O)C(C)C [Example 34] (H-Y[Aib]EGT[αMePhe(2-F)]ISDYSIALDKK([AEEA-AEEA-γGlu-C20 diacid])HQ[Aib]EFVNYLLATGPSSGAPPPS-NH2) | 0.143 | 0.201 | 462
4 | CC[C@H](C)[C@H](NC(=O)[C@H](CO)NC(=O)[C@H](Cc1ccc(O)cc1)NC(=O)[C@H](CC(=O)O)NC(=O)[C@H](CO)NC(=O)[C@@H](NC(=O)[C@](C)(CC(C)C)NC(=O)[C@@H](NC(=O)CNC(=O)[C@H](CCC(=O)O)NC(=O)C(C)(C)NC(=O)[C@@H](N)Cc1ccc(O)cc1)[C@@H](C)O)[C@@H](C)CC)C(=O)N[C@@H](C)C(=O)N[C@@H](CC(C)C)C(=O)N[C@@H](CC(=O)O)C(=O)N[C@@H](CCCCN)C(=O)N[C@@H](CCCCNC(=O)COCCOCCNC(=O)COCCOCCNC(=O)CC[C@H](NC(=O)CCCCCCCCCCCCCCCCCCC(=O)O)C(=O)O)C(=O)N[C@@H](Cc1c[nH]cn1)C(=O)N[C@@H](CCC(N)=O)C(=O)NC(C)(C)C(=O)N[C@@H](CCC(=O)O)C(=O)N[C@@H](Cc1ccccc1)C(=O)N[C@H](C(=O)N[C@@H](CC(N)=O)C(=O)N[C@@H](Cc1ccc(O)cc1)C(=O)N[C@@H](CC(C)C)C(=O)N[C@@H](CC(C)C)C(=O)N[C@@H](C)C(=O)N[C@H](C(=O)NCC(=O)N1CCC[C@H]1C(=O)N[C@@H](CO)C(=O)N[C@@H](CO)C(=O)NCC(=O)N[C@@H](C)C(=O)N1CCC[C@H]1C(=O)N1CCC[C@H]1C(=O)N1CCC[C@H]1C(=O)N[C@@H](CO)C(N)=O)[C@@H](C)O)C(C)C [Example 35] (H-Y[Aib]EGT[αMeL]ISDYSIALDKK([AEEA-AEEA-γGlu-C20 diacid])HQ[Aib]EFVNYLLATGPSSGAPPPS-NH2) | > 0.96 | 0.177 | > 5000
5 | CC[C@H](C)[C@H](NC(=O)[C@H](CO)NC(=O)[C@H](Cc1ccc(O)cc1)NC(=O)[C@H](CC(=O)O)NC(=O)[C@H](CO)NC(=O)[C@@H](NC(=O)[C@](C)(Cc1ccccc1F)NC(=O)[C@@H](NC(=O)CNC(=O)[C@H](CCC(=O)O)NC(=O)C(C)(C)NC(=O)[C@@H](N)Cc1ccc(O)cc1)[C@@H](C)O)[C@@H](C)CC)C(=O)N[C@@H](C)C(=O)N[C@@H](CC(C)C)C(=O)N[C@@H](CC(=O)O)C(=O)N[C@@H](CCCCN)C(=O)N[C@@H](CCCCNC(=O)COCCOCCNC(=O)COCCOCCNC(=O)CC[C@H](NC(=O)CCCCCCCCCCCCCCCCCCC(=O)O)C(=O)O)C(=O)N[C@@H](Cc1c[nH]cn1)C(=O)N[C@@H](CCC(N)=O)C(=O)NC(C)(C)C(=O)N[C@@H](CC(=O)O)C(=O)N[C@@H](Cc1ccccc1)C(=O)N[C@H](C(=O)N[C@@H](CCC(=O)O)C(=O)N[C@@H](Cc1ccc(O)cc1)C(=O)N[C@@H](CC(C)C)C(=O)N[C@@H](CC(C)C)C(=O)N[C@@H](CCC(=O)O)C(=O)N[C@H](C(=O)NCC(=O)N1CCC[C@H]1C(=O)N[C@@H](CO)C(=O)N[C@@H](CO)C(=O)NCC(=O)N[C@@H](C)C(=O)N1CCC[C@H]1C(=O)N1CCC[C@H]1C(=O)N1CCC[C@H]1C(=O)N[C@@H](CO)C(N)=O)[C@@H](C)O)C(C)C [Example 36] (H-Y[Aib]EGT[αMePhe(2-F)]ISDYSIALDKK([AEEA-AEEA-γGlu-C20 diacid])HQ[Aib]DFVEYLLETGPSSGAPPPS-NH2) | 0.201 | 0.393 | 1080
6 | CC[C@H](C)[C@H](NC(=O)[C@H](CO)NC(=O)[C@H](Cc1ccc(O)cc1)NC(=O)[C@H](CC(=O)O)NC(=O)[C@H](CO)NC(=O)[C@@H](NC(=O)[C@](C)(Cc1ccccc1F)NC(=O)[C@@H](NC(=O)CNC(=O)[C@H](CCC(=O)O)NC(=O)C(C)(C)NC(=O)[C@@H](N)Cc1ccc(O)cc1)[C@@H](C)O)[C@@H](C)CC)C(=O)N[C@@H](C)C(=O)N[C@@H](CC(C)C)C(=O)N[C@@H](CC(=O)O)C(=O)N[C@@H](CCCCN)C(=O)N[C@@H](CCCCNC(=O)COCCOCCNC(=O)COCCOCCNC(=O)CC[C@H](NC(=O)CCCCCCCCCCCCCCCCCCC(=O)O)C(=O)O)C(=O)N[C@@H](Cc1c[nH]cn1)C(=O)N[C@@H](CCC(N)=O)C(=O)NC(C)(C)C(=O)N[C@@H](CC(=O)O)C(=O)N[C@@H](Cc1ccccc1)C(=O)N[C@H](C(=O)N[C@@H](CCC(=O)O)C(=O)N[C@@H](Cc1ccc(O)cc1)C(=O)N[C@@H](CC(C)C)C(=O)N[C@@H](CC(C)C)C(=O)N[C@@H](CCC(=O)O)C(=O)NCC(=O)NCC(=O)N1CCC[C@H]1C(=O)N[C@@H](CO)C(=O)N[C@@H](CO)C(=O)NCC(=O)N[C@@H](C)C(=O)N1CCC[C@H]1C(=O)N1CCC[C@H]1C(=O)N1CCC[C@H]1C(=O)N[C@@H](CO)C(N)=O)C(C)C [Example 37] (H-Y[Aib]EGT[αMePhe(2-F)]ISDYSIALDKK([AEEA-AEEA-γGlu-C20 diacid])HQ[Aib]DFVEYLLEGGPSSGAPPPS-NH2) | 0.0514 | 0.0839 | 61.1
